Publication PMC7831021, “Computational Evolution of Beta-2-Microglobulin Binding Peptides for Nanopatterned Surface Sensors” (International Journal of Molecular Sciences, 2021)
Where a SMILES comes first, the peptide text is derived from it. Bridges are numbered along the chain shown (N, C = ends).

Columns and labels:
[1] = target: T1, beta-2-Microglobulin (β2m) (Homo sapiens, UniProt P61769); test: Surface plasmon resonance (SPR) binding of peptides to immobilized β2m
T1 construct: purchased Sigma Aldrich (Germany)
Description: The interaction between the protein and computationally optimized peptides was measured using the BIAcore 3000 (GE Healthcare, Milano, Italy). β2m was immobilized at a concentration of 100 μg/mL in 10 mM acetate buffer pH 5 (flow rate 5 μL/min, time injection 7 min) on a CM5 Biacore sensor chip, using EDC/NHS chemistry following the manufacturer’s instructions. Residual reactive groups were deactivated by treatment with 1 M ethanolamine hydrochloride, pH 8.5. The reference channel was activated with EDC/NHS and deactivated with ethanolamine. The binding assays were carried out at 20 μL/min at 25 °C, with 4.5 min contact-time. Peptides were diluted in the HBS running buffer (10 mM Hepes, 150 mM NaCl, 3 mM EDTA, pH 7.4). Analyte injections were performed at the indicated concentrations. The sensor surface was regenerated by using 10mM NaOH for 1 min. The association phase (kon) was followed for 250 s, whereas the dissociation phase (koff) was followed for 300 s. The instrument BIAevaluation analysis package (version 4.1, GE Healthcare, Milano, Italy) was used to subtract the signal of the reference channel.

[2] = target: T1, beta-2-Microglobulin (β2m); test: AFM differential height β2m binding (recognition) assay on dsDNA–peptide nanopatches; settings: 5 and 1.25 mg/mL β2m
Description: After the nanografting process, the sample was thoroughly rinsed with 1M NaCl, TE1X buffer (DNA-free buffer), followed by a hybridization procedure with 200 nM of ssDNA–peptide conjugates solution in 1 M NaCl, Te1X at pH 7.2 and the hybridization process took place at 37 °C for 1 h. This was repeated for different concentrations of the ssDNA–pep381 so as to obtain the plots in Figure 7. Next, the sample was copiously rinsed with 1M NaCl, TE1X buffer (DNA-free buffer). This was to remove any un-bound molecules and other excess molecules that were not part of the hybridization. At the end of hybridization process before β2m binding assays, we performed AFM topographic imaging at low force (~0.2 nN) in contact mode and acquired AFM micrographs of all the nanografted nanoassemblages that had undergone hybridization. This imaging section allowed us to compare the AFM micrographs of ssDNA nanopatches to the same after hybridization with ssDNA–peptide conjugates and measure their respective relative heights.
The dsDNA–peptide nanoassemblages were incubated with the known concentration of β2m solution for a period of 1 h at 25 °C. […] Next, we measured the relative height of dsDNA–peptide assemblage after the binding assay using the section tool in Igor Pro 6.3A software. […]

Row | kon ([1]; BIAcore 3000, HBS pH 7.4, 25 °C, association followed for 250 s, χ^2 = 4.5) [M⁻¹ s⁻¹] | koff ([1]; BIAcore 3000, HBS pH 7.4, 25 °C, dissociation followed for 300 s, χ^2 = 4.5) [s⁻¹] | SPR affinity, in words ([1]; SPR, 1:1 Langmuir) | recognition of respective binding sites on β2m, in words [2] | Compound
1 | 15 | 0.00449 | micromolar KD estimated values |  | C[C@@H]1NC(=O)[C@H]([C@@H](C)O)NC(=O)[C@H](CCC(=O)O)NC(=O)[C@H](Cc2ccccc2)NC(=O)[C@@H](N)CSSC[C@@H](C(=O)O)NC(=O)[C@H](Cc2c[nH]c3ccccc23)NC(=O)[C@H](CCC(=O)O)NC(=O)[C@H](CC(N)=O)NC(=O)[C@H](CCC(N)=O)NC(=O)[C@H](CCCNC(=N)N)NC(=O)[C@H](Cc2c[nH]c3ccccc23)NC1=O [pep331] (H-CFETAWRQNEWC-OH; disulfide 1-12)
2 |  |  |  | relatively high sensitivity | [CRRYSHQHYRHC] (disulfide) [pep381]
